The test system of test [1] is HAP1- and HCT116 MTAP-null cells. As to the kind of experiment: Global SDMA levels (ELISA / in-cell imaging) in MTAP-null cells. Type of test: cell-based. Particulars: HAP1 ELISA 3 days, HCT116 in-cell imaging 4 days. The protocol:
(§1) FIG. 1. […] Viability was measured by CellTiter-Glo and cooperativity was determined as follows: Cooperativity=WT IC50/MTAP-null IC50.
HAP1 WT and MTAP-null global SDMA levels were assessed by an ELISA assay after 3 days treatment.
HCT116 WT and MTAP-null global SDMA levels were assessed by an in-cell imaging assay after 4 days treatment.
In general terms: ELISA stands for enzyme-linked immunosorbent assay.

For test [2] the test system is unchanged. Kind of test: 6-day CellTiter-Glo viability in MTAP-null cells. Type of test: cell-based. Particulars: 144 h, 6 days, read-out: proliferation, IC50. The protocol: as §1
(§2) Plated cells were at optimized cell density in 96-well black walled, clear bottom tissue culture plates in 90 μL of growth media. Cells were incubated at room temperature for 30 minutes prior to placing in incubator at 37° C. and 5% CO2 overnight. […] Secondary compound dilutions (1:100) in media were done in the 96-well V-Bottom plate by adding 3 μL of the primary dilution to 297 μL of culture media. Finally, 10 μL from the secondary compound dilutions were added to cells in triplicate (1:10 dilution; final DMSO concentration 0.1%). Once addition was complete, plates were incubated at 37° C. and 5% CO2. […] Percent of Control (POC) values were calculated as follows: POC=100*(Treatment/Vehicle). Mean POC values were then calculated for each treatment condition and used to fit dose response curves applying a four parameter logistic curve in GraphPad Prism 7.
In general terms: Cellular ATP, detected with luciferase, serves as a proxy for viable cell number.

Another test concerns HCT116 MTAP-WT cells. As to the kind of experiment: 6-day CellTiter-Glo viability in MTAP-WT cells. Type of test: cell-based. Conditions: Homo sapiens, HCT-116, 144 h, 6 days, read-out: proliferation, IC50. The protocol:
as §1, §2

The test system of test [3] is endogenous wild-type or MTAP-null cell lines. As to the kind of experiment: 6-day viability in expanded panel of tumor cell lines. It counts as cell-based. Particulars: endogenous MTAP-null vs wild-type cell lines; 6-day CellTiter-Glo. The protocol:
FIG. 9. […] Top concentration of tested was 10 μM (1 uM for DLBCL lines) with a total of nine 1:3 serial dilution steps and DMSO-only control. […] (mean±SD, n=3).

The test system of another test is MTAP-null cells. As to the kind of experiment: In-vitro mechanism of action studies (DNA damage, cell cycle). It counts as cell-based. Conditions: data not shown.
Test [4] has as its system HCT116 MTAP-null tumor xenografts. Conditions: mouse, in vivo, po. The protocol: FIG. 2: ELISA analysis of HCT116 MTAP WT and HCT116 MTAP-null contralateral tumor cells. […] Percentage of inhibition reported relative to matched vehicle. Data represent mean±SD, n=3 for each group.
Female Athymic Nude mice were implanted with HCT116 MTAP-null or MTAP WT tumors. […] Data represents group means±SEM, n=10. […] STATS: P values were determined by Linear Mixed-Effects Model with a Dunnett's comparison to control.

Test [5] has as its system DOHH-2 endogenous MTAP-null xenografts. Conditions: mouse, in vivo, po. The protocol:
FIG. 10. […] Female SCID mice were implanted with DOHH-2 or BxPC-3 tumors. […] Data represent group means±SEM, n=10. Terminal DOHH-2 or BxPC-3 tumors were collected for SDMA ELISA analysis. Data represent mean±SD, n=5 for each group. STATS: P values were determined by Linear Mixed-Effects Model with a Dunnett's comparison to control; **p<0.01, ****p<0.0001.
FIG. 11. […] (A-D.) Female SCID mice were implanted with DOHH-2 tumors. […] Mice were dosed orally (p.o.) once a day for ten days. Data represent group means±SEM, n=10. A.) Terminal DOHH-2 tumor volumes. […] C.) Disaggregated tumors were stained for γH2AX, MFI (mean florescent intensity). D.) Cardiac bleeds were performed and analyzed on ADVIA.

Test [6] concerns BXPC-3 endogenous MTAP-null xenografts. As to the kind of experiment: BxPC-3 xenografts. It counts as in vivo. Conditions: BxPC-3 xenografts in SCID mice; p.o. once a day. An excerpt: FIG. 10. […] Data represent group means±SEM, n=10. […] Data represent mean±SD, n=5 for each group.
The test system of test [7] is PSN1 cells. As to the kind of experiment: Combination with gemcitabine, CellTiter-Glo viability, Fa and CalcuSyn CI. Particulars: 6 days.
Experimental: (§3) Cell viability was measured by the CellTiter-Glo Luminescence assay. Raw luminescent values were converted to fraction affected (Fa) with the following equation:
(§4) Synergy analysis was performed using the CalcuSyn software to determine CI scores based on the drug concentrations used and corresponding Fa values.
Test [8] has as its system PSN1 cells. Kind of test: Combination with carboplatin, CellTiter-Glo viability, Fa and CalcuSyn CI. Conditions: Compound B 0.0384 μM fixed + Carboplatin 3 μM, 6 days.
Experimental: as §3, §4
For a further test, the system named is MIAPACA2T2 cells. Particulars: 6 days.
For test [9], the system named is PSN1 cells. Particulars: 6 days.
Experimental: as §3, §4
The mark [10] stands for this setting: Compound B 0.022375 μM fixed + Gemcitabine 0.001461 μM.
Setting [11] is: Compound B 0.022375 μM fixed + Gemcitabine 0.005612 μM.
Setting [12] is: Compound G 0.83102 μM fixed + 5-FU 0.664052 μM.
[13] abbreviates: Compound G 0.83102 μM fixed + 5-FU 0.929672 μM.
[14] abbreviates: Compound G 0.83102 μM fixed + 5-FU 1.30154 μM.
The mark [15] stands for this setting: Compound G 0.83102 μM fixed + 5-FU 1.82216 μM.
Where [16] appears, read: Compound G 0.83102 μM fixed + 5-FU 2.55102 μM.
Setting [17] is: Compound G 0.83102 μM fixed + 5-FU 3.57143 μM.
Setting [18] is: Compound G 0.83102 μM fixed + 5-FU 5 μM.
Setting [19] is: Compound G 0.0213 μM fixed + 5-FU 0.357628 μM.
Where [20] appears, read: Compound G 0.0213 μM fixed + 5-FU 0.572205 μM.
[21] abbreviates: Compound G 0.0213 μM fixed + 5-FU 0.915527 μM.
Setting [22] is: Compound G 0.0213 μM fixed + 5-FU 1.46484 μM.
Setting [23] is: Compound G 0.0213 μM fixed + 5-FU 2.34375 μM.
Setting [24] is: Compound G 0.0213 μM fixed + 5-FU 3.75 μM.
[25] abbreviates: Compound G 0.0213 μM fixed + 5-FU 6 μM.

Each structure is given as a SMILES string. Entries after “also recorded” stand apart in the source; their conditions may differ. Where two headings read alike, the source gives them in different places.

Experimental for MIAPACA2T2 cells: as §3, §4

`Cc1cc2cc(C(=O)N(Cc3ccc(C(F)(F)F)cn3)[C@@H](C)c3ncccn3)ccc2nc1N` [Compound B]: the IC50 worked out at 0.0002 µM in [1], 0.027 µM in [2] and 0.63 µM in the test on HCT116 MTAP-WT cells. Moreover, in [3], the “proliferation / viability in expanded panel of tumor cell lines” value is “inhibited the proliferation of most MTAP-null cells, with minimal effects on MTAP-WT cells; also recorded: preferential activity in endogenous MTAP-null tumor cell lines; also recorded: preferentially inhibits cell viability in endogenous MTAP-null vs. wildtype”. The “DNA damage (phosphorylation of H2AX)” value in the test on MTAP-null cells was “induced DNA damage, as illustrated by increased phosphorylation of H2AX”. For the same molecule, the cell cycle entry in the test on MTAP-null cells is “an arrest in the G2/M phase of the cell cycle”. Moreover, in test [4], the “SDMA and tumor growth in xenografts” value was “selectively inhibits SDMA and tumor growth”. For the same molecule, the anti-tumor activity result in test [5] and in [6] was “significant anti-tumor activity” each time. Besides, the “DNA damage response in tumors (γH2AX)” value in test [5] (100 mg/kg) is “increase in the DNA damage response”. Also, in test [5] (100 mg/kg), the “cell cycle in tumors (BrdU/DAPI flow cytometry)” value was “cell cycle arrest”. Besides, the “Combination Fa” value in the test with PSN1 cells [7] (setting [10]) is reported as 0.594; in the test on PSN1 cells [7] (setting [11]), 0.985; in the test on PSN1 cells [7] (Compound B 0.022375 μM fixed + Gemcitabine 0.007857 μM), 0.986; in the test on PSN1 cells [7] (Compound B 0.022375 μM fixed + Gemcitabine 0.011 μM) it was 0.989. In addition, the “Computed CI value” in the test with PSN1 cells [7] (setting [10]) is listed as 2.081; in the test on PSN1 cells [7] (Compound B 0.022375 μM fixed + Gemcitabine 0.002045 μM), 1.177; in the test with PSN1 cells [7] (setting [11]), 0.8; with PSN1 cells [8] it was 0.547.
Consider `Nc1nc2cnc(C(=O)N3CCOC[C@@H]3c3ccc(C(F)(F)F)cc3)cc2c2c1COC2` [Compound G], for which the “Combination Fa” value was determined as 0.7114 in the test on MIAPACA2T2 cells (setting [12]); 0.7511 in the test with MIAPACA2T2 cells (setting [13]); 0.8099 with MIAPACA2T2 cells (setting [14]); 0.85 with MIAPACA2T2 cells (setting [15]); 0.8941 in the test with MIAPACA2T2 cells (setting [16]); 0.9193 in the test with MIAPACA2T2 cells (setting [17]). The “Combination Fa” value came to 0.9246 in the test on MIAPACA2T2 cells (setting [18]); 0.3 with PSN1 cells [9] (setting [19]); 0.416 in the test with PSN1 cells [9] (setting [20]); 0.669 in the test on PSN1 cells [9] (setting [21]); 0.74 in the test with PSN1 cells [9] (setting [22]); 0.789 in the test with PSN1 cells [9] (setting [23]). The “Combination Fa” value with PSN1 cells [9] (setting [24]) amounted to 0.836; in the test on PSN1 cells [9] (setting [25]) it was 0.869. The “Computed CI value” in the test with MIAPACA2T2 cells (setting [12]) was found to be 0.445; in the test with MIAPACA2T2 cells (setting [13]), 0.477; in the test with MIAPACA2T2 cells (setting [14]), 0.482; in the test on MIAPACA2T2 cells (setting [15]) it was 0.529; in the test with MIAPACA2T2 cells (setting [16]), 0.555; in the test on MIAPACA2T2 cells (setting [17]), 0.632. In addition, the “Computed CI value” in the test on MIAPACA2T2 cells (setting [18]) came out at 0.834; in the test with PSN1 cells [9] (setting [19]), 1.422; with PSN1 cells [9] (setting [20]), 1.404; with PSN1 cells [9] (setting [21]), 1.055; in the test with PSN1 cells [9] (setting [22]), 1.282; with PSN1 cells [9] (setting [23]), 1.668. For the same molecule, the figures for the “Computed CI value” in the test on PSN1 cells [9] (setting [24]) and in the test with PSN1 cells [9] (setting [25]) were 2.158 and 2.903, respectively.

Source of the values: patent publication US20250228861A1, “Cancer Treatments Using MTA-Cooperative PRMT5 Inhibitors” (AMGEN INC., priority 2022, published 2025).
